The record followed here is paper PMC4457528, “Identification of Novel Small Molecule Inhibitors of Oncogenic RET Kinase” (PLoS ONE, 2015).

The structures appear in SMILES notation. Where two headings read alike, the source gives them in different places.

Holding throughout (test): KinomeScan kinase panel, single concentration 10 µM
Format in all cases: binding

The target in experiment [1] is T1, KinomeScan kinase panel (Homo sapiens, UniProt O75582).
T1 construct: purchased DiscoveRx (KinomeScan)
The conditions noted are these: 10 µM, read-out: score (%).

For experiment [2], the target named is T2, KinomeScan kinase panel (Homo sapiens, UniProt P15735).
T2 construct: purchased DiscoveRx (KinomeScan)
T2 sequence (P15735 1-406): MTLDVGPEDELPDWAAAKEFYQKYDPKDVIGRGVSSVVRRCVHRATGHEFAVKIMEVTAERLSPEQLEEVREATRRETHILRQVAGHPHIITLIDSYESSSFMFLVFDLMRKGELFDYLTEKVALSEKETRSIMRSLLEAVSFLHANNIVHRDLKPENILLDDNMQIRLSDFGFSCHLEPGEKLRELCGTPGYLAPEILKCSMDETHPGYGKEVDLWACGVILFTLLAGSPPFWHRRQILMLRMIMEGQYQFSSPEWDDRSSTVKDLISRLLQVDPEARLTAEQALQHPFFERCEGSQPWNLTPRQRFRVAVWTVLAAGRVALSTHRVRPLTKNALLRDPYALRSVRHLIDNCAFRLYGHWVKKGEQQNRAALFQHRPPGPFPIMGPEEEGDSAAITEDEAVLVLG
The conditions noted are these: PHKG2, 10 µM; read-out: score (%).

The target in experiment [3] is T3, KinomeScan kinase panel (Homo sapiens, UniProt P43403).
T3 construct: purchased DiscoveRx (KinomeScan)
T3 sequence (P43403 1-619): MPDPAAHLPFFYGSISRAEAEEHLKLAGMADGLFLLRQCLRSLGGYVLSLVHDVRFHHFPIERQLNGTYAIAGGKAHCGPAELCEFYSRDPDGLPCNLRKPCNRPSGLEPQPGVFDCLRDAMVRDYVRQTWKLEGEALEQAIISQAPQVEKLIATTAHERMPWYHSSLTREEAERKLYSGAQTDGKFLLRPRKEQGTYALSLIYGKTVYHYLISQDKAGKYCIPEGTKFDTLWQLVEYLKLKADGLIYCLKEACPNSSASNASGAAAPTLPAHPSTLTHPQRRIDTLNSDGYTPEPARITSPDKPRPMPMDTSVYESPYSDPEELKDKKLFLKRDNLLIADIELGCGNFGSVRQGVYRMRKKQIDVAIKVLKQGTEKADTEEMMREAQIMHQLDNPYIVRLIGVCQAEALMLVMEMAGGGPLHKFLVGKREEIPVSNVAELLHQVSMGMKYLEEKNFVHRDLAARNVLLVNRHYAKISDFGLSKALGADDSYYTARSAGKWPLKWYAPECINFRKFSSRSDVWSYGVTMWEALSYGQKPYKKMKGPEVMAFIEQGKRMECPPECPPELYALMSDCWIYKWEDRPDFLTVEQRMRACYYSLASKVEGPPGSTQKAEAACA
Conditions: kinase ZAP70; 10 µM; read-out: score (%).

Experiment [4] has as its target T4, KinomeScan kinase panel (Homo sapiens, UniProt P50613).
T4 construct: purchased DiscoveRx (KinomeScan)
The conditions noted are these: CDK7, 10 µM; read-out: score (%).

Experiment [5] addresses T5, KinomeScan kinase panel (Homo sapiens, UniProt Q12851).
T5 construct: purchased DiscoveRx (KinomeScan)
T5 sequence (Q12851 1-820): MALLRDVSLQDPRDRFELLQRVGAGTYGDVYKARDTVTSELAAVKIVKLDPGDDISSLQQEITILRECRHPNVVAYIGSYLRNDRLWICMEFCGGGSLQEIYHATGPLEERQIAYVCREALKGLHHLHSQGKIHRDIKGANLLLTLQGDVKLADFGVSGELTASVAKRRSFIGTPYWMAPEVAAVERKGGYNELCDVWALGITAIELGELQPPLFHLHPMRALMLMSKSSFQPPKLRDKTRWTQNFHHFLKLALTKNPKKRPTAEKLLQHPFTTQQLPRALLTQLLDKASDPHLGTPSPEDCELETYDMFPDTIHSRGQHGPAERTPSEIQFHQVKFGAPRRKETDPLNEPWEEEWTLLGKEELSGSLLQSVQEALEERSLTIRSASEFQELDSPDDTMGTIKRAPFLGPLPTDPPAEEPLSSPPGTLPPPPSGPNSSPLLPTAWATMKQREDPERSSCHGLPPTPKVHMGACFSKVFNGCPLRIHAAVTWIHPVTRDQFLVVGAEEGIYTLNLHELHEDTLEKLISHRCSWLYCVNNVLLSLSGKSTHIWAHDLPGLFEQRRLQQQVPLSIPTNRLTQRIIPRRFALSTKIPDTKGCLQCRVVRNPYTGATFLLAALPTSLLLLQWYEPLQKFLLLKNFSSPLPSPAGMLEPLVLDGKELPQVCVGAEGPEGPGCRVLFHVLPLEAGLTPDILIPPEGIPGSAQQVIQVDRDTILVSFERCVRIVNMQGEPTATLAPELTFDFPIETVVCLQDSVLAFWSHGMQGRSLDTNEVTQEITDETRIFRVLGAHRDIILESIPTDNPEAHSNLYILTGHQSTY
Conditions: MAP4K2, 10 µM; read-out: score (%).

The target in experiment [6] is T6, KinomeScan kinase panel (Homo sapiens, UniProt Q9P1W9).
T6 construct: purchased DiscoveRx (KinomeScan)
Conditions: PIM2, 10 µM; read-out: score (%).

Experiment [7] deals with T7, KinomeScan kinase panel (Homo sapiens, UniProt Q9UBE8).
T7 construct: purchased DiscoveRx (KinomeScan)
T7 sequence (Q9UBE8 1-527): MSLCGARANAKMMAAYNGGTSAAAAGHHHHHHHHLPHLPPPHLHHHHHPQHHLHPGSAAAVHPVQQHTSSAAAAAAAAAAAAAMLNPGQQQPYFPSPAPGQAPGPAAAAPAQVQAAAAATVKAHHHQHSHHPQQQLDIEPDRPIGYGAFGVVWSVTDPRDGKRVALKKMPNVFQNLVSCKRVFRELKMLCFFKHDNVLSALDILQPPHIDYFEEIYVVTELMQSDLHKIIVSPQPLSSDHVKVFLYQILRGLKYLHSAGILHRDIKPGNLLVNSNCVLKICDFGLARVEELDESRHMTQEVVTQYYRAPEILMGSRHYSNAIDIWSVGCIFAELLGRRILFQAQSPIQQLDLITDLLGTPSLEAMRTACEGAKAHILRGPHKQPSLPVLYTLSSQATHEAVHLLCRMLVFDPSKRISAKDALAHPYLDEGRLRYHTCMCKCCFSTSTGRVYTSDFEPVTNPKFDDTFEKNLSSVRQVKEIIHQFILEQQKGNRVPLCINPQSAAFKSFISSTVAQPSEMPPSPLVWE
Conditions: NLK, 10 µM; read-out: score (%).

The mark [8] stands for this setting: kinase RPS6KA5(Kin.Dom.1-N-terminal).
[9] abbreviates: kinase RPS6KA5(Kin.Dom.2-C-terminal).

T6 sequence (Q9P1W9 whole entry): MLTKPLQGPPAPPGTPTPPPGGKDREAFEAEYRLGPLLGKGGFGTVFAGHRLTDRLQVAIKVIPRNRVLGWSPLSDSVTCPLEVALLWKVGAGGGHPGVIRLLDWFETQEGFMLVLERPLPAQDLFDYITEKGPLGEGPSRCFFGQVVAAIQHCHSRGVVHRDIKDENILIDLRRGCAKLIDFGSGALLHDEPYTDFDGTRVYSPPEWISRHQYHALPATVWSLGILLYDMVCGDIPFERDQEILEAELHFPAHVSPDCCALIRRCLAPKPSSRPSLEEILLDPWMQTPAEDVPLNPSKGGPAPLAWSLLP
T1 sequence (O75582 whole entry): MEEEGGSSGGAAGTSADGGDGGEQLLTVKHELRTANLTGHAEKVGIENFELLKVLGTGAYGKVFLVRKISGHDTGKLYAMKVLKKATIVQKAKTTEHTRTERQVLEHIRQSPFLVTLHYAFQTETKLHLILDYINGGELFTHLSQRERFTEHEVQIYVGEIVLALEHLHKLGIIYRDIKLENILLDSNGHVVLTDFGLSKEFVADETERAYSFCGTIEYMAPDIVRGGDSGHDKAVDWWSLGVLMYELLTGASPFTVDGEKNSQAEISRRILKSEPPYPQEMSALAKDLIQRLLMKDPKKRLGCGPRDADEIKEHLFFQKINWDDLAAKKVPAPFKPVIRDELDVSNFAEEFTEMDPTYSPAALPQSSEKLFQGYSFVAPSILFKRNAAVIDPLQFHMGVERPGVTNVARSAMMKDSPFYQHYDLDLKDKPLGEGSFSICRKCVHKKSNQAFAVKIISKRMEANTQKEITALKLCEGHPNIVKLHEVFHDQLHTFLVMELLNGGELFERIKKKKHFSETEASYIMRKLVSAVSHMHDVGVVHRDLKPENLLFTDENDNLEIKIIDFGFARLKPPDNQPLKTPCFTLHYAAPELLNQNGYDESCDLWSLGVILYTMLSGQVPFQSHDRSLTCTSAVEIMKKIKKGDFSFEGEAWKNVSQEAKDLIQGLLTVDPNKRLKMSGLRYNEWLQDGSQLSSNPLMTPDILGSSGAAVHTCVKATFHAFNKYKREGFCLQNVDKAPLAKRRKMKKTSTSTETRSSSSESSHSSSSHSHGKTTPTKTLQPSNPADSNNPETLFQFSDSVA
T4 sequence (P50613 whole entry): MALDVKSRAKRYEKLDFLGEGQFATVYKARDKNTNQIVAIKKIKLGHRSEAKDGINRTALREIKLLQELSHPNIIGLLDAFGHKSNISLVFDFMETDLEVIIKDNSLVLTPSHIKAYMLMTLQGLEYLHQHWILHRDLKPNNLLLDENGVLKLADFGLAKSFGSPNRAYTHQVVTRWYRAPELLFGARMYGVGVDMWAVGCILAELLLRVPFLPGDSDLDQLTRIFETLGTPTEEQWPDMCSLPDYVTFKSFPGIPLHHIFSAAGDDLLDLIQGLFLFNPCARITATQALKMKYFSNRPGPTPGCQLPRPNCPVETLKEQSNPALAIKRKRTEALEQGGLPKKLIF

With `CCN1CCN(Cc2ccc(NC(=O)c3ccc(C)c(NC(=O)c4cncc(-c5cccs5)c4)c3)cc2C(F)(F)F)CC1` [ALW-II-41-27], the remaining binding at 10 µM on KinomeScan kinase panel [1] (setting [8]) is 11%; at KinomeScan kinase panel [1] (setting [9]), > 30%; at KinomeScan kinase panel [2], > 30%; at KinomeScan kinase panel [3] it was > 30%; at KinomeScan kinase panel [4] it was 26%; at KinomeScan kinase panel [5], 0.6%. In addition, the remaining binding at 10 µM on KinomeScan kinase panel [6] was found to be 22%; on KinomeScan kinase panel [7] it was 7.2%.
Take `CCN1CCN(Cc2ccc(NC(=O)c3ccc(C)c(/C=C/c4cnc5[nH]ccc5c4Cl)c3)cc2C(F)(F)F)CC1` [HG-6-63-01, (E)-3-(2-(4-chloro-1H-pyrrolo[2,3-b]pyridin-5-yl)vinyl)-N-(4-((4-ethylpiperazin-1-yl)methyl)-3-(trifluoromethyl)phenyl)-4-methylbenzamide]: the remaining binding at 10 µM is > 30% at KinomeScan kinase panel [1] (RPS6KA5(Kin.Dom.1)); > 30% at KinomeScan kinase panel [1] (RPS6KA5(Kin.Dom.2)); > 30% on KinomeScan kinase panel [2]; > 30% on KinomeScan kinase panel [3]; > 30% on KinomeScan kinase panel [4]; 0.25% at KinomeScan kinase panel [5]. Further, the values for the remaining binding at 10 µM on KinomeScan kinase panel [6] and on KinomeScan kinase panel [7] were > 30% and 6.8%, respectively.
`CCN1CCN(Cc2ccc(NC(=O)c3ccc(C)c(C#Cc4cccnc4)c3)cc2C(F)(F)F)CC1` [XMD15-44]: the remaining binding at 10 µM stood at 59% on KinomeScan kinase panel [1] (setting [8]); 100% on KinomeScan kinase panel [1] (setting [9]); 92% on KinomeScan kinase panel [2]; 62% at KinomeScan kinase panel [3]; 1.6% at KinomeScan kinase panel [4]; 0% at KinomeScan kinase panel [5]. The remaining binding at 10 µM at KinomeScan kinase panel [6] turned out to be 100%; on KinomeScan kinase panel [7] it was 8.2%.
